≈ marks a conversion by molar mass, not a printed value. Bridge positions count the residues as written; N and C are the ends. Square brackets hold non-standard residues; d marks the D form. Peptide text beside a SMILES is read from it. AEEA = NCCOCCOCC(=O)O

MIC data for one molecule are collected here from publication PMC9097129, “C-terminal mini-PEGylation of a marine peptide N6 had potent antibacterial and anti-inflammatory properties against Escherichia coli and Salmonella strains in vitro and in vivo” (BMC Microbiology, 2022).

The test system of one experiment is S. hyicus NCTC10350. Format: cell-based. The method, then:
(§1) The MIC was determined according to the method developed by Clinical and Laboratory Standards Institute (CLSI). The strains were cultured in Mueller–Hinton Broth medium (MHB) at the appropriate temperature until mid-log phase. A series of two-fold dilutions of N6 and PEGylated N6 (10 μL) and bacterial suspension (1 × 10^5 CFU/mL, 90 μL) were added into 96-well plates and incubated at 37 °C for 18 – 24 h. PBS and MHB were used as the negative and blank control, respectively. All assays were conducted in triplicate.

Another experiment relates to S. aureus ATCC546. Type of experiment: cell-based. The protocol:
as §1

A further experiment concerns S. aureus ATCC43300. Type of experiment: cell-based. The protocol:
as §1

For another experiment, the system named is S. enteritidis CVCC3377. Format: cell-based. The method, then:
as §1

The test system of another experiment is P. aeruginosa CICC21630. Format: cell-based. The protocol:
as §1

Another experiment relates to S. aureus ATCC25923. Format: cell-based. The method, then:
as §1

The next experiment relates to S. typhimurium ATCC14028. Type of experiment: cell-based. The protocol: as §1
For a further experiment, the system named is E. coli ATCCO157. Type of experiment: cell-based, Escherichia coli. To be noted: MHB, 1 × 10^5 CFU/mL, 37 °C, 18 – 24 h, triplicate. The method, then:
as §1

The subject of the next experiment is E. coli CVCC25922. Type of experiment: cell-based, Escherichia coli. The protocol:
as §1

A further experiment relates to E. coli CVCC1515. Format: cell-based, Escherichia coli. The protocol: as §1
A further experiment has as its system E. coli CVCC195. Format: cell-based, Escherichia coli. The method, then:
as §1

A further experiment concerns C. albicans CMCC98001. Format: cell-based, Candida albicans. The method, then:
as §1

For the next experiment, the system named is S. pullorum CVCC533. Type of experiment: cell-based, Salmonella pullorum. The method, then: as §1
For a further experiment, the system named is S. pullorum CVCC1789. Type of experiment: cell-based, Salmonella pullorum. The method, then: as §1
The next experiment relates to S. pullorum CVCC1802. Format: cell-based, Salmonella pullorum. The protocol: as §1

In general, MIC refers to the lowest concentration that inhibits growth of the organism. A lower MIC goes with inhibition by little substance. Regarding `CC(C)[C@@H]1NC(=O)CNC(=O)[C@H](CC(N)=O)NC(=O)[C@H](CCCNC(=N)N)NC(=O)[C@H](Cc2ccc(O)cc2)NC(=O)[C@H](C(C)C)NC(=O)[C@@H](NC(=O)[C@@H](NC(=O)[C@H](CC(N)=O)NC(=O)[C@H](Cc2c[nH]c3ccccc23)NC(=O)[C@H](C)NC(=O)[C@H](Cc2ccccc2)NC(=O)CNC(=O)COCCOCCN)C(C)C)CSSC[C@@H](C(=O)N[C@@H](Cc2c[nH]cn2)C(=O)N[C@@H](CCCNC(=N)N)C(=O)N[C@@H](CCCNC(=N)N)C(=O)N[C@@H](C)C(=O)N[C@@H](CC(N)=O)C(=O)O)NC(=O)[C@H](C(C)C)NC(=O)[C@H](CCCNC(=N)N)NC1=O` [N6-NH2-miniPEG] (H-[AEEA]GFAWNVCVYRNGVRVCHRRAN-OH; disulfide 8-17), the MIC is > 48.84 µM in the experiment on S. hyicus NCTC10350; 48.84 µM (≈ 128 µg/mL) in the experiment with S. aureus ATCC546; 48.84 µM (≈ 128 µg/mL) against S. aureus ATCC43300; 6.10 µM (≈ 16 µg/mL) against S. enteritidis CVCC3377; 24.42 µM (≈ 64 µg/mL) with P. aeruginosa CICC21630; > 48.84 µM in the experiment with S. aureus ATCC25923. Moreover, the minimal inhibitory concentration (MIC) was 6.10 µM (≈ 16 µg/mL) against S. typhimurium ATCC14028; 6.10 µM (≈ 16 µg/mL) against E. coli ATCCO157; 3.05 µM (≈ 7.99 µg/mL) against E. coli CVCC25922; 6.1 µM (≈ 16 µg/mL) in the experiment with E. coli CVCC1515; 6.1 µM (≈ 16 µg/mL) in the experiment with E. coli CVCC195; > 48.84 µM against C. albicans CMCC98001. The MIC was determined as 12.21 µM (≈ 32 µg/mL) against S. pullorum CVCC533, 6.10 µM (≈ 16 µg/mL) against S. pullorum CVCC1789 and 6.10 µM (≈ 16 µg/mL) against S. pullorum CVCC1802.
